Results reported in patent US20260174783A1, “HALOBETASOL PROPIONATE-LIDOCAINE FORMULATIONS” (priority 2023, published 2026).

Assay: In vitro permeation test: delivery of Halobetasol Propionate to the skin
Type: in vitro ADME
Details: Formulations 1 and 2
Source text: The ability of the formulations of the present invention to deliver the APIs to their active sites was investigated by in vitro permeation tests.

SMILES: CCC(=O)O[C@]1(C(=O)CCl)[C@@H](C)C[C@H]2[C@@H]3C[C@H](F)C4=CC(=O)C=C[C@]4(C)[C@@]3(F)[C@@H](O)C[C@@]21C [Halobetasol Propionate, (6α, 11β, 16β)-21-Chloro-6,9-difluoro-11-hydroxy-16-methyl-17-(1-oxopropoxy) pregna-1,4-diene-3,20-dione]
- Halobetasol Propionate receiver media concentration: no receiver media concentration
